Results as given in US5231182A, “Method of making certain aryl containing amides” (American Cyanamid Company, priority 1991, dated 1993).
Values joined by “and” are separate entries in the source; they are usually repeats but may differ in a detail not shown here. Equal entries are not always repeated.

Key:
PAF induced lethality = PAF induced lethality in mice; type: in vivo; conditions: PAF 150 μg/kg IV
Description: PAF given I.V. to mice causes an immediate hypotensive shock leading to death in 1 hour or less. Compounds are given intraperitoneally or P.O. at various times before the PAF challenge. Animals alive after 2 hours are counted and the activity of test compounds expressed as % survival corrected for any control (saline treated) animals which survived the PAF challenge.
Effect of Compound Given I.V. or P.O. in Protecting
Mice from a Lethal Challenge of PAF^a
^a lethal challenge of PAF is 150 μg/kg IV.

PAF receptor = target: T1, PAF receptor (Oryctolagus cuniculus, UniProt G1TEI7); test: Platelet Activating Factor antagonism in vitro: inhibition of PAF induced platelet aggregation in rabbit platelet rich plasma; type: cell-based, rabbit (New Zealand White); conditions: PAF chall conc 5.0000E-08 M
T1 construct: centrifuged at 800 rpm for 10-15 minutes at room temperature to recover the platelet rich plasma (PRP); endogenous in cells; host or cells: platelets in citrated platelet rich plasma from male New Zealand White rabbits (Oryctolagus cuniculus)
Description: Test compounds are evaluated as PAF receptor antagonists in vitro by measuring inhibition of PAF (platelet activating factor) induced platelet aggregation. Platelet aggregation is measured by a modification of the method described in […], et. al., J. Med. Chem., 27 1174, 1984. […] All syringes and pipets are plastic. The blood is gently mixed and immediately centrifuged at 800 rpm for 10-15 minutes at room temperature to recover the platelet rich plasma (PRP). Platelet poor plasma (PPP) is prepared by centrifuging PRP at 2800 rpm for 10 minutes at room temperature. Dilutions (1:3000) of PRP in Isoton® diluent are made and platelet counts are determined on a Coulter Thrombocounter which is standardized with platelet reference standards (Interscience Platelet Control, Portland, Oreg.). PRP platelet counts are adjusted to approximately 400,000-500,000 platelets/μl by the addition of PPP. L-PAF (Platelet Activating Factor) is obtained from Calbiochem. […] All solutions are made up in plastic tubes, stored on ice and protected from heat and light. Solutions are prepared fresh or frozen at -20° C. and used within 48 hours. Incubation mixtures consisted of 400 μl PRP, 50 μl of saline diluent or test compound and 50 μl of PAF agonist. More specifically, 400 μl of PRP is stabilized in a cuvette for 1-2 minutes at 37° C. in the aggregometer to achieve a stable baseline, then 50 μl of saline or test compound is added and incubated for 5 minutes before addition of the challenge concentration of PAF. A submaximal concentration is determined from the dose response curve for PAF for that experiment. In general, the challenge concentration is 5E-8 or IE-7M. Aggregation is monitored for 5 minutes. Samples containing test compound or diluent are run simultaneously for comparison. Test compounds are initially evaluated at a screening concentration of 1E-5M. […] The recording equipment consists of a dual channel Chronolog aggregometer connected to a dual channel 10MV full scale deflection Omniscribe chart recorder (Houston Instruments). The chart recorder is calibrated daily with the use of a suspension of Bio-Rad latex beads (S-X 12 400 mesh) which has a density slightly greater than rabbit PRP. […] These limits defined a full scale deflection. The aggregation traces are analyzed by a digitizing method (C. Kohler and B. Zoltan, J. Pharm. Methods, 12, 113, 1984) with x, y coordinate data stored in a computer file. A suitable program computes parameters of interest such as the magnitude of aggregation. | ^a dose of compound that gives the indicated % inhibition. | ^b the % inhibition of PAF induced platelet aggregation. | ^c the molar concentration of compound that will inhibit 50% of the | platelet aggretation induced by PAF given at the indicated PAF challenge | concentration.

[1] = tested on: Endotoxin induced shock and mortality; test: Endotoxin induced shock and mortality in mice: low dose, chronic mouse endotoxemia; type: in vivo, Male Balb/c mice
Description: Endotoxin administration produces a shock-like state characterized by vascular permeability changes, hypotension, neutropenia, thrombocytopenia,multiple organ damage and death. The major mediators released after endotoxin injection are TNF (tumor necrosis factor), PAF (platelet activating factor) and […] (interleukin I). PAF administration mimics the signs and symptoms of endotoxin induced shock and death and endotoxin also induces the release of PAF. Therefore, the effects of endotoxin should be blocked with a PAF antagonist.
Male Balb/c mice (approximately 20 g) are obtained from Charles River Laboratories and used after a one-two week acclimation period. Animals are given (ip) test compound dissolved in saline or water (sonicated and heated) at different time intervals prior to and after the ip injection of endotoxin (usually 2 hours before LPS endotoxin, and 3-4 hours after). Sigma E. Coli endotoxin, 0111:B4, phenol extraction, catalog #L2630 is used for these studies.
For the chronic endotoxin shock model, a lower dose of endotoxin is administered (generally 15 to 20 mg/kg i.p). This dose gives an LD80 in two to four days following LPS administration. Test compounds are given 2 hours before LPS and 3-4 hours after on the first day, followed by 3 or 4 consecutive days of BID dosing. The number of survivors in each group is recorded each day for a period of 5 to 7 days.
Effect of Compounds Given i.p. in Low Dose, Chronic Mouse Endoxemia

T1 sequence (G1TEI7 1-342): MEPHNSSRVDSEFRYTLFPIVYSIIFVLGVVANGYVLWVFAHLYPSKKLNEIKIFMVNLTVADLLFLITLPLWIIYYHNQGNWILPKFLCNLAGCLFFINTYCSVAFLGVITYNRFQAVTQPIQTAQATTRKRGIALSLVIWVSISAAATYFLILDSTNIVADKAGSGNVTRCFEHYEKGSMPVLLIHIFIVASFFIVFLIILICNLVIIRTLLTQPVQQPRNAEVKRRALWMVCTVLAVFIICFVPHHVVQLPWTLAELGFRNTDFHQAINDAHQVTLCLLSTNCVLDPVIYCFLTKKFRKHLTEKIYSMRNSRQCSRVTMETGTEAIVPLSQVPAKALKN

## CCCCCCCCCCCCCCOc1ccc(CN(C(C)=O)c2cccc(C[n+]3csc(C)c3)c2)cc1.[Br-] [3-[[3-[Acetyl[[4-(tetradecyloxy)phenyl]methyl]amino]phenyl]methyl]-5-methylthiazolium bromide]
PAF induced lethality; I.V. 1 mg/kg
  % Survival: 83%
PAF induced lethality; I.V. .25 mg/kg
  % Survival: 100%
PAF induced lethality; I.V. .5 mg/kg
  % Survival: 83%
PAF induced lethality; P.O. 5 mg/kg
  % Survival: 52%
PAF induced lethality; P.O. 10 mg/kg
  % Survival: 75%
PAF induced lethality; P.O. 20 mg/kg
  % Survival: 75%
PAF receptor; dose .00001 M
  % INH (inhibition of PAF induced platelet aggregation): 100.0% and 90.0%
[1]; day 0, dose 10 mg/kg i.p.
  % Survival: 100%
  No Surv./tot.: 30/30
[1]; day 1, dose 10 mg/kg i.p.
  % Survival: 73%
  No Surv./tot.: 22/30
[1]; day 2, dose 10 mg/kg i.p.
  % Survival: 33%
  No Surv./tot.: 10/30
[1]; day 3, dose 10 mg/kg i.p.
  % Survival: 26%
  No Surv./tot.: 8/30
[1]; day 4, dose 10 mg/kg i.p.
  % Survival: 23%
  No Surv./tot.: 7/30
[1]; day 5, dose 10 mg/kg i.p.
  % Survival: 23%
  No Surv./tot.: 7/30
[1]; day 6, dose 10 mg/kg i.p.
  % Survival: 23%
  No Surv./tot.: 7/30

## CCCCCCCCCCCCCCOc1ccc(CC(=O)Nc2cccc(C[n+]3ccsc3)c2)cc1.[Br-] [3-[[3-[[[-4-(tetradecyloxy)phenyl]acetyl]amino]phenyl]methyl]thiazolium bromide]
PAF induced lethality; P.O. 40 mg/kg
  % Survival: 40%
PAF receptor; dose .000001 M
  % INH (inhibition of PAF induced platelet aggregation): 93.0% and 62.0%
[1]; day 0, dose 10 mg/kg i.p.
  % Survival: 100%
  No Surv./tot.: 30/30
[1]; day 0, dose 20 mg/kg i.p.
  % Survival: 100%
  No Surv./tot.: 30/30
[1]; day 1, dose 10 mg/kg i.p.
  % Survival: 83%
  No Surv./tot.: 25/30
[1]; day 1, dose 20 mg/kg i.p.
  % Survival: 90%
  No Surv./tot.: 27/30
[1]; day 2, dose 10 mg/kg i.p.
  % Survival: 66%
  No Surv./tot.: 20/30
[1]; day 2, dose 20 mg/kg i.p.
  % Survival: 43%
  No Surv./tot.: 13/30
[1]; day 3, dose 10 mg/kg i.p.
  % Survival: 63%
  No Surv./tot.: 19/30
[1]; day 3, dose 20 mg/kg i.p.
  % Survival: 40%
  No Surv./tot.: 12/30
[1]; day 4, dose 10 mg/kg i.p.
  % Survival: 63%
  No Surv./tot.: 19/30
[1]; day 4, dose 20 mg/kg i.p.
  % Survival: 40%
  No Surv./tot.: 12/30
[1]; day 5, dose 10 mg/kg i.p.
  % Survival: 63%
  No Surv./tot.: 19/30
[1]; day 5, dose 20 mg/kg i.p.
  % Survival: 40%
  No Surv./tot.: 12/30
[1]; day 6, dose 10 mg/kg i.p.
  No Surv./tot.: 19/30
[1]; day 6, dose 20 mg/kg i.p.
  No Surv./tot.: 12/30
[1]; day 7, dose 10 mg/kg i.p.
  % Survival: 63%
  No Surv./tot.: 19/30
[1]; day 7, dose 20 mg/kg i.p.
  % Survival: 40%
  No Surv./tot.: 12/30
